Measurements from patent publication US20230212180A1, “SUBSTITUTED PYRAZINE COMPOUND, PHARMACEUTICAL COMPOSITION COMPRISING SAME, AND USE THEREOF” (Sichuan Kelun-Biotech Biopharmaceutical Co., Ltd., priority 2020, published 2023).

Assays:
Format in all cases: in vivo
[1] = Pharmacokinetic (PK) studies in Balb/c mouse; conditions: for AUC(0-t): read-out: AUClast; for half-life: read-out: T1/2 (converted)
Procedure: Test Example 7: Pharmacokinetic (PK) Studies in Balb/c Mouse
The compound of Example 12, Control Compound 1, Control Compound 2, and TNO-155 were administered to female Balb/c mice by intravenous injection (IV) and gavage (PO) respectively to estimate the pharmacokinetic properties. Dosing amounts for IV and PO routes were 1 mg/kg and 10 mg/kg, respectively. The solvent for IV route was 5% DMSO+5% Solutol+90% Saline, and the solvent for PO route was 0.5% MC (sodium methylcellulose). Blood was collected at various time points after IV and PO administration. The blood from the test groups of the compound of Example 12, Control Compound 1, and Control Compound 2 was anticoagulated using EDTA.K2 and preserved at −80° C. The blood from the test groups of TNO-155 was anticoagulated using EDTA.K2 and centrifuged to obtain plasma samples, and the plasma samples were preserved at −80° C.
The blood or plasma samples were subjected to protein precipitation and then to the LC-MS/MS analysis. WinNonlin 6.3 software was used to calculate the pharmacokinetic parameters by non-compartmental model, and the results were listed in Table 7 below.

[2] = Pharmacokinetic (PK) studies in beagle dog; conditions: for AUC(0-t) / clearance / half-life: dog, male beagle dogs, plasma
Procedure: Test Example 8: Pharmacokinetic (PK) Studies in Beagle Dog
(§1) The compound of Example 12, Control Compound 1, Control Compound 2, and TNO-155 were administered to male beagle dogs by intravenous injection (IV) and gavage (PO) respectively to estimate the pharmacokinetic properties. Dosing amounts for IV and PO routes were 0.5 mg/kg and 2.5 mg/kg. The solvent for IV route was 5% DMSO+5% Solutol+90% Saline, and the solvent for PO route was 0.5% MC (sodium methylcellulose). Blood was collected at various time points after IV and PO administration. The blood was anticoagulated using EDTA.K2, and centrifuged to obtain plasma samples. The plasma samples were preserved at −80° C.
The plasma samples were subjected to protein precipitation and then to the LC-MS/MS analysis. WinNonlin 6.3 software was used to calculate the pharmacokinetic parameters by non-compartmental model, and the results were listed in Table 8 below.

[3] = Pharmacokinetic (PK) studies in SD rat
Procedure: Test Example 6: Pharmacokinetic (PK) Studies in SD Rat
as §1, with “Example 12 and” for “Example 12,”, “Compound 2” for “Compound 1, Control Compound 2, and TNO-155”, “male SD rats” for “male beagle dogs”, “were 1” for “were 0.5”, “and 5 mg/kg, respectively.” for “and 2.5 mg/kg.”, “DMSO+5% Solutol (polyoxyl 15-hydroxystearate)+90% Saline (physiological saline),” for “DMSO+5% Solutol+90% Saline,”
The plasma samples were subjected to protein precipitation and then to the LC-MS/MS analysis. WinNonlin 6.3 software was used to calculate the pharmacokinetic parameters by non-compartmental model, and the results were listed in Table 6 below.

[4] = mouse, in vivo, female Balb/c mice, PO, 10 mg/kg, blood (TNO-155: plasma)
[5] = rat, in vivo, male SD rats, IV, 1 mg/kg, plasma
[6] = rat, in vivo, male SD rats, PO, 5 mg/kg, plasma
[7] = mouse, whole blood (TNO-155: plasma), female Balb/c mice, PO, 10 mg/kg, blood (TNO-155: plasma)

Structure (SMILES): C[C@@H]1OCC2(CCN(c3ncc(Sc4ccnc(N5CC(C(C)(C)O)C5)c4Cl)nc3CO)CC2)[C@@H]1N [Example 12, 2-(1-(4-(5-((3S,4S)-4-amino-3-methyl-2-oxa-8-azaspiro[4.5]decan-8-yl)-6-(hydroxymethyl)pyrazin-2-ylthio)-3-chloropyridin-2-yl)azetidin-3-yl)propan-2-ol]
- pharmacokinetic properties (in words) ([1]; Balb/c mice, 1 mg/kg by injection and 10 mg/Kg by mouth): excellent pharmacokinetic properties
- AUC(0-t) ([1]; mouse, in vivo, female Balb/c mice, IV, 1 mg/kg, blood (TNO-155: plasma)): 2590 ng·h/mL
- clearance ([1]; mouse, in vivo, female Balb/c mice, IV, 1 mg/kg, blood (TNO-155: plasma), read-out: Cl): 6.23 mL/min/kg
- AUC(0-t) [1, 4]: 12300 ng·h/mL
- half-life [1, 4]: 7.13 h
- pharmacokinetic properties (in words) ([2]; beagle dog, 0.5 mg/kg by injection and 2.5 mg/Kg by mouth): excellent pharmacokinetic properties
- AUC(0-t) ([2]; in vivo, IV, 0.5 mg/kg): 3090 ng·h/mL
- clearance ([2]; in vivo, IV, 0.5 mg/kg): 2.31 mL/min/kg
- AUC(0-t) ([2]; in vivo, PO, 2.5 mg/kg): 11000 ng·h/mL
- half-life ([2]; in vivo, PO, 2.5 mg/kg): 24.5 h
- pharmacokinetic properties (in words) ([3]; SD rat, 1 mg/kg by injection and 5 mg/kg by mouth): excellent pharmacokinetic properties
- AUC(0-t) [3, 5]: 1690 ng·h/mL
- Cmax [3, 5]: 373 ng/mL
- clearance [3, 5]: 9.8 mL/min/kg
- AUC(0-t) [3, 6]: 9680 ng·h/mL
- Cmax [3, 6]: 1110 ng/mL

Structure (SMILES): C[C@@H]1OCC2(CCN(c3cnc(Sc4ccnc(N)c4Cl)c(N)n3)CC2)[C@@H]1N [TNO-155, reference compound]
- Cl ([1]; female Balb/c mice, IV, 1 mg/kg, blood (TNO-155: plasma)): 24 mL/min/kg
- AUC(0-t) ([1]; mouse, whole blood (TNO-155: plasma), female Balb/c mice, IV, 1 mg/kg, blood (TNO-155: plasma)): 672 ng·h/mL
- AUC(0-t) [1, 7]: 7910 ng·h/mL
- half-life [1, 7]: 1.69 h
- AUC(0-t) ([2]; IV, 0.5 mg/kg): 2350 ng·h/mL
- clearance ([2]; IV, 0.5 mg/kg): 3.43 mL/min/kg
- AUC(0-t) ([2]; PO, 2.5 mg/kg): 10100 ng·h/mL
- half-life ([2]; PO, 2.5 mg/kg): 13.2 h
